The values below come from ChEMBL document CHEMBL6134896, “Recent Advances in Augmenting the Therapeutic Efficacy of Peptide-Drug Conjugates” (2025).

The subject of one experiment is OVCAR-3. Nature of the experiment: Growth inhibition of human OVCAR-3 cells incubated for 3 days by CellTiter-Glo luminescent assay. It counts as functional. The following applies: OVCAR-3, 72 h, time 3 day. On the technique in general: Cellular ATP, detected with luciferase, serves as a proxy for viable cell number.
Another experiment relates to SK-OV-3. Nature of the experiment: Growth inhibition of human SK-OV-3 cells incubated for 3 days by CellTiter-Glo luminescent assay. It counts as functional. Particulars: SK-OV-3, 72 h, time 3 day.

With `CC[C@H](C)[C@@H]([C@@H](CC(=O)N1CCC[C@H]1[C@H](OC)[C@@H](C)CC(=O)N[C@H](C)[C@@H](C)c1ccccc1)OC)N(C)C(=O)[C@@H](NC(=O)[C@H](C(C)C)N(C)C(=O)OCc1ccc(NC(=O)[C@H](CCCNC(N)=O)NC(=O)[C@@H](NC(=O)CCCCCN2C(=O)CC(SCC[C@@H](NC(=O)[C@H](Cc3ccc(O)cc3)NC(=O)[C@H](CO)NC(=O)[C@H](Cc3c[nH]c4ccccc34)NC(=O)[C@H](Cc3cnc[nH]3)NC(=O)[C@@H]3CCC(=O)N3)C(=O)N[C@@H](CC(C)C)C(=O)N[C@@H](CCCNC(=N)N)C(=O)N3CCC[C@H]3C(=O)NCC(N)=O)C2=O)C(C)C)cc1)C(C)C` (some centres not stated), the concentration for 50% growth inhibition (GI50) (as a rule, the concentration that inhibits growth by half) in the experiment with OVCAR-3 came out at 4 nM; with SK-OV-3, 453 nM.
